Consider two molecules from ChEMBL document CHEMBL4825706, “Synthesis and biological evaluation of selenogefitinib for reducing bleomycin-induced pulmonary fibrosis” (Bioorg Med Chem Lett, 2021).

For experiment [1], the system named is Mus musculus. Put plainly: Antifibrotic activity in C57BL mouse model of BLM-induced lung fibrosis assessed as HYP level at 60 mg/kg (reference value: 5.31 +/- 0.79 ug/mg). The experiment is classed as functional.
Experiment [2] has as its system Mus musculus. Put plainly: Antifibrotic activity in C57BL mouse model of BLM-induced lung fibrosis assessed as reduction in alveolar wall thickness by measuring lung coefficient at 60 mg/kg by hematoxylin and eosin staining based assay (reference value: 12.89 +/- 2.52 g). The experiment is classed as functional.
Experiment [3] concerns Mus musculus. Kind of experiment: Antifibrotic activity in C57BL mouse model of BLM-induced lung fibrosis assessed as IL-6 level in blood at 60 mg/kg measured after 14 days by flow cytometry (reference value: 2.36 +/- 0.16 pg/ml). The experiment is classed as functional. The conditions noted are these: time 14 day. On the technique in general: A flow cytometer gives signals particle by particle.

For experiment [4], the system named is Mus musculus. Put plainly: Antifibrotic activity in C57BL mouse model of BLM-induced lung fibrosis assessed as reduction in collagen deposition in the lung at 60 mg/kg by masson staining method. The experiment is classed as functional, organism-based.
Experiment [5] deals with Mus musculus. Kind of experiment: Antifibrotic activity in C57BL mouse model of BLM-induced lung fibrosis assessed as MDA content at 60 mg/kg measured after 14 days (reference value: 9.93 +/- 1.41 nmol/ml). The experiment is classed as functional. The conditions noted are these: time 14 day.
Experiment [6] deals with Mus musculus. Put plainly: Antifibrotic activity in C57BL mouse model of BLM-induced lung fibrosis assessed as IL-4 level in blood at 60 mg/kg measured after 14 days by flow cytometry (reference value: 2.72 +/- 0.14 pg/ml). The experiment is classed as functional. The conditions noted are these: time 14 day.
Experiment [7] has as its system Mus musculus. Put plainly: Antifibrotic activity in C57BL mouse model of BLM-induced lung fibrosis assessed as TNF-alpha level in blood at 60 mg/kg measured after 14 days by flow cytometry (reference value: 3.12 +/- 0.11 pg/ml). Conditions: time 14 day. The experiment is classed as functional.
Experiment [8] relates to L02. Kind of experiment: Cytotoxicity against human L02 cells assessed as inhibition of cell growth measured by CCK8 assay. The experiment is classed as functional, cell-based. (Tetrazolium dyes change colour on reduction, which living cells bring about.)
Experiment [9] can be described thus: Cytotoxicity against human HBE cells assessed as inhibition of cell growth measured by CCK8 assay. The experiment is classed as ADME, cell-based.
The subject of experiment [10] is Mus musculus. Put plainly: Antifibrotic activity in C57BL mouse model of BLM-induced lung fibrosis assessed as reduction in infiltration of inflammatory cells at 60 mg/kg by hematoxylin and eosin staining based assay. The experiment is classed as functional, organism-based.
For experiment [11], the target named is Epidermal growth factor receptor (Homo sapiens, UniProt P00533). Put plainly: Inhibition of EGFR (unknown origin) by ADP-Glo kinase assay. (In ADP-Glo the light output rises with the ADP produced.)

Activity calls are given as the source filed them. The rule behind the calls is not given here.

Chain of Epidermal growth factor receptor (P00533 whole entry): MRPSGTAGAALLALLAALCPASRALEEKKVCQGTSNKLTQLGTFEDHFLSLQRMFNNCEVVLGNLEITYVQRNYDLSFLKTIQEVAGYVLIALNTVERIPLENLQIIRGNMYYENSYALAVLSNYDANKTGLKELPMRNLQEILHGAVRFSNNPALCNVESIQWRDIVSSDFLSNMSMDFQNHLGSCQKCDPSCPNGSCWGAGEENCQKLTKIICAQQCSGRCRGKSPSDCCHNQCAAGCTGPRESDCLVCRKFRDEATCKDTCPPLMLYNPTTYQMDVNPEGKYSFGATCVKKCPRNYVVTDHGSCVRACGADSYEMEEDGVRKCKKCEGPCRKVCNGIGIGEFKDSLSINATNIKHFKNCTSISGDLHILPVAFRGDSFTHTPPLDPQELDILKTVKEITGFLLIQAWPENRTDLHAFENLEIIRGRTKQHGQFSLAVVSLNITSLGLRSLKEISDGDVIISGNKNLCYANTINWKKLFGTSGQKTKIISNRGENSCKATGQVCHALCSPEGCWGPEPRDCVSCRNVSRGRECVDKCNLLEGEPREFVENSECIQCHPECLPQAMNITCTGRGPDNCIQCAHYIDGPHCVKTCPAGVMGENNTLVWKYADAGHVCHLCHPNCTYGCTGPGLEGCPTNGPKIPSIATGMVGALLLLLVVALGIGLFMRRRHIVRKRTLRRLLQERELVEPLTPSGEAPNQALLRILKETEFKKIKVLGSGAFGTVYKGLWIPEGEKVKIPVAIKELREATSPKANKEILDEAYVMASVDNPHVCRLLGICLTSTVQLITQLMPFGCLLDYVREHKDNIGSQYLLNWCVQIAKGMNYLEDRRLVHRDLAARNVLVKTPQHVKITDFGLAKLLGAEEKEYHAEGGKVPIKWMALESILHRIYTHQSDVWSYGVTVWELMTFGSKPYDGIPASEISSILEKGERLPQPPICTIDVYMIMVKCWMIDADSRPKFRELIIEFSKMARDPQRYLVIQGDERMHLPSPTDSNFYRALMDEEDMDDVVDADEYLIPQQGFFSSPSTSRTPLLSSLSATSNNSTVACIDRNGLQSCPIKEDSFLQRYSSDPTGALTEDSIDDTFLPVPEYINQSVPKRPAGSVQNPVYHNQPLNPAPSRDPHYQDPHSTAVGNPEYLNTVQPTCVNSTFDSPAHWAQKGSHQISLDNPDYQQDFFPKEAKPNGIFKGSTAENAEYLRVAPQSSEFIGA

On to `COc1cc2ncnc(Nc3ccc(F)c(Cl)c3)c2cc1OCCCN1CCOCC1` [GEFITINIB], for which the Activity is 3.39 µg/mg in experiment [1]; 9.7 g in experiment [2]; 1.77 pg/mL in experiment [3]; 8.92 nmol/mL in experiment [5]; 2.17 pg/mL in experiment [6]; 2.39 pg/mL in [7]. Further, in [4], the outcome was Active.

`COc1cc2ncnc(Nc3ccc(F)c(Cl)c3)c2cc1OCCCN1CC[Se]CC1`: the Activity in experiment [1] came out at 3.01 µg/mg; in experiment [2], 7.56 g; in [3], 1 pg/mL; in experiment [5], 6.13 nmol/mL; in [6], 1.72 pg/mL; in experiment [7], 1.56 pg/mL. Further, the results for the IC50 in experiment [8], in experiment [9] and in experiment [11] were 13.8 µM, 21.8 µM and 0.0253 µM, respectively. The result in [10] and in experiment [4] was Active.

In general, IC50 refers to the concentration that gives 50% inhibition.
